This passage reports IC50 results from US12600723B2, “Tetracyclic compounds as DGK inhibitors” (Incyte Corporation, priority 2022, dated 2026).

Molecules are shown by their SMILES. A value given as a limit tells only on which side of the number the result lay.

One experiment deals with T1, DGKζ (Homo sapiens, UniProt Q13574).
T1 construct: His; purchased Signal Chem D30-10H
The experiment in a line: In vitro DGKζ inhibition assay (ADP-Glo). The class given is biochemical. The note with it: His-tagged human recombinant DGKζ 0.4 nM, 30 μM ATP, 20 μM DLG, 90 minute incubation. As for the experimental part: (§1) The DGKα and DGKζ biochemical reactions were performed using His-tagged human recombinant enzymes (Signal Chem, DGKα, #D21-10BH; DGKζ, #D30-10H)) and DLG (Dilauroyl-sn-glycerol) lipid substrate (Signal Chem, #D430-59). ADP-Glo assay was performed using ADP-Glom kinase Assay kit (Promega, #V9104). The reactions were carried out in assay buffer containing 40 mM Tris, pH 7.5, 0.1% CHAPS, 0.1% Prionex, 40 mM NaCl, 5 mM MgCl2, 1 mM CaCl2), and 1 mM DTT. DGKα reactions contained 0.1 nM DGKα, 50 μM ATP, and 20 μM DLG. And DGKζ reactions contained 0.4 nM DGKζ, 30 μM ATP, and 20 μM DLG.
(§2) For compound inhibition studies, 40 nL test compound in DMSO was added to wells of white polystyrene plates in 384-well (Greiner, #784075) or 1536-well format (Greiner, #782075). Compounds were added with top concentration of 2 mM with 11 point, 3-fold dilution series. Enzyme solution (contains 2×DGK enzyme concentration in 1× assay buffer) was added to the plate in 2 μL/well volume, followed by 2 μL/well of substrate solution (contains 2× concentration of ATP and DLG substrate in 1× assay buffer). Plates were then centrifuged for 1 min at 1200 RPM and sealed or lidded. For 4 μL reaction volume, test compounds were therefore diluted 100× to final top concentration of 20 μM. After 90 minute incubation, reactions were quenched by addition of 2 μL/well Promega ADP-Glo Reagent, followed by centrifugation and lidding. After 60 min incubation, 2 μL/well Promega Kinase Detection Reagent was added, plates centrifuged, and incubated for 30 min. Plates were then read using Luminescence method on BMG PHERAstar FSX plate reader. Percent inhibition was calculated and IC50s were determined using 4-parameter fit in Genedata Screener. Labcyte Echo acoustic dispenser was used for compound addition, and Formulatrix Tempest liquid handler was used for all reagent dispenses.

For the next experiment, the target named is T2, DGKα (Homo sapiens, UniProt P23743).
T2 construct: His; purchased Signal Chem D21-10BH
T2 sequence (P23743 whole entry): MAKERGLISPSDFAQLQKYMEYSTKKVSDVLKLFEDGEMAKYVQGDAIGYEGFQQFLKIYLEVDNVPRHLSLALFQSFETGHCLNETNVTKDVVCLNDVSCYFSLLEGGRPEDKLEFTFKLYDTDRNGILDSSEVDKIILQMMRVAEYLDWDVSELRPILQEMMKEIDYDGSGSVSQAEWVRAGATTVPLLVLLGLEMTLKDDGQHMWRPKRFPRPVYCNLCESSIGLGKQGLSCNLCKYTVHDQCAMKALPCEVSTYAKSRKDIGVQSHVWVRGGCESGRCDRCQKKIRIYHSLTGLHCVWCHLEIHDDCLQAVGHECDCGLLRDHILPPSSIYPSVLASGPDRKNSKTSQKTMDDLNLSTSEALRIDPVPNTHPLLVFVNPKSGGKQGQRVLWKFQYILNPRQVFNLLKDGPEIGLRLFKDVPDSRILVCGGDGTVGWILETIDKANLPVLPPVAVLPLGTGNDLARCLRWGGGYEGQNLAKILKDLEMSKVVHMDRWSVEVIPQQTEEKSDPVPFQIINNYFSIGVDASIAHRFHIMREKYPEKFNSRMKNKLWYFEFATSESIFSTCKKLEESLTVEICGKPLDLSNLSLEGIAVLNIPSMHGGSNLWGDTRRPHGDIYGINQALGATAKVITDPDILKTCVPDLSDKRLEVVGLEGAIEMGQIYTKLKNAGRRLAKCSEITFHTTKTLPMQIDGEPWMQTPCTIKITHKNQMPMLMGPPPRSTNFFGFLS
The experiment in a line: In vitro DGKα inhibition assay (ADP-Glo). It is filed as biochemical. The note with it: His-tagged human recombinant DGKα 0.1 nM, 50 μM ATP, 20 μM DLG, 90 minute incubation. As for the experimental part: as §1, §2
(ADP-Glo turns the ADP formed in a reaction into a luminescent signal.)

T1 sequence (Q13574 whole entry): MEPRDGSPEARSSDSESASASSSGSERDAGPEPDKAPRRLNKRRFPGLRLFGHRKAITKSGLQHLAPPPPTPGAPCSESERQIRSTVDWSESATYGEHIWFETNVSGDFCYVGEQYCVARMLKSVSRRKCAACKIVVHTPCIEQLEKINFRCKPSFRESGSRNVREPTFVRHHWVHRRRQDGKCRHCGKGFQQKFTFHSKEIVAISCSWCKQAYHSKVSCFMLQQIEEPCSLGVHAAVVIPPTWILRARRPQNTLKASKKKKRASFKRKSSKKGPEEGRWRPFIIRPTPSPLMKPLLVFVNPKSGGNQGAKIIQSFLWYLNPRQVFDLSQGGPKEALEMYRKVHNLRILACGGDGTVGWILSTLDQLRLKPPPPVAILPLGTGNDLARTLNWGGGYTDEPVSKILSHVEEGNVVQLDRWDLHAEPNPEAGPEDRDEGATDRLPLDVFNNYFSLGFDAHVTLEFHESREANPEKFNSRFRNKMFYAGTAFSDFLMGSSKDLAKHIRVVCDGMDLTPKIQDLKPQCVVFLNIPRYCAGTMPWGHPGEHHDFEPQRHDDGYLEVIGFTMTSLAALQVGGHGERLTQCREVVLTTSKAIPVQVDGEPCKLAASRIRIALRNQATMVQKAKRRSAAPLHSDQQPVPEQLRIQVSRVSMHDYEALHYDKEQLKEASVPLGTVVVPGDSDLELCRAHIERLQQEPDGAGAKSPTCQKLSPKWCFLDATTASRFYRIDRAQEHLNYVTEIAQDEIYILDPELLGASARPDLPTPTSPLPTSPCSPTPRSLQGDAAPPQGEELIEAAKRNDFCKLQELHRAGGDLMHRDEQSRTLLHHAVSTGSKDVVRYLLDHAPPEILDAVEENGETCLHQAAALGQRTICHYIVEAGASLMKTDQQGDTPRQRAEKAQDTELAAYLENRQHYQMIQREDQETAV

Usually IC50 stands for the concentration at which inhibition is half-maximal. `COCCN1C(=O)[C@H]2CN(C(c3ccc(F)cc3)c3ccc(F)cc3)[C@H](C)CN2c2c1c(=O)n(C)c1ccc(C#N)nc21` [Example 2, (8aR,11R)-10-(Bis(4-fluorophenyl)methyl)-7-(2-methoxyethyl)-5,11-dimethyl-6,8-dioxo-5,7,8,8a,9,10,11,12-octahydro-6H-pyrazino[1′,2′:4,5]pyrazino[2,3-c][1,5]naphthyridine-2-carbonitrile]: the IC50 on DGKζ fell in the range of 0.2 to 2 µM; at DGKα it was 0.04 to 0.2 µM.
Consider `Cc1ccc2c(n1)c1c(c(=O)n2C)N(C)C(=O)[C@H]2CN(C(c3ccc(F)cc3)c3ccc(F)cc3)[C@H](C)CN12` [Example 5, (8aR,11R)-10-(Bis(4-fluorophenyl)methyl)-2,5,7,11-tetramethyl-5,7,9,10,11,12-hexahydro-6H-pyrazino[1′,2′:4,5]pyrazino[2,3-c][1,5]naphthyridine-6,8(8aH)-dione], for which the IC50 at DGKζ is greater than 2 µM; on DGKα it was no more than 0.04 µM.
Turning to `C[C@@H]1CN2c3c(c(=O)n(C)c4ccc(=O)[nH]c34)N(C)C(=O)[C@H]2CN1C(c1ccc(F)cc1)c1ccc(F)cc1` [Example 9, (8aR,11R)-10-(Bis(4-fluorophenyl)methyl)-5,7,11-trimethyl-5,7,9,10,11,12-hexahydro-1H-pyrazino[1′,2′:4,5]pyrazino[2,3-c][1,5]naphthyridine-2,6,8(8aH)-trione], the IC50 at DGKζ was greater than 2 µM; at DGKα, no more than 0.04 µM.
`COc1ccc2c(n1)c1c(c(=O)n2C)N(C)C(=O)[C@H]2CN(C(c3ccc(F)cc3)c3ccc(F)cc3)[C@H](C)CN12` [Example 7, (8aR,11R)-10-(Bis(4-fluorophenyl)methyl)-2-methoxy-5,7,11-trimethyl-5,7,9,10,11,12-hexahydro-6H-pyrazino[1′,2′:4,5]pyrazino[2,3-c][1,5]naphthyridine-6,8(8aH)-dione]: the figures for the IC50 on DGKζ and on DGKα were greater than 2 µM and no more than 0.04 µM, respectively.
For `C[C@@H]1CN2c3c(c(=O)n(C)c4ccc(CC#N)nc34)N(C)C(=O)[C@H]2CN1C(c1ccc(F)cc1)c1ccc(F)cc1` [Example 6, 2-((8aR,11R)-10-(Bis(4-fluorophenyl)methyl)-5,7,11-trimethyl-6,8-dioxo-5,7,8,8a,9,10,11,12-octahydro-6H-pyrazino[1′,2′:4,5]pyrazino[2,3-c][1,5]naphthyridin-2-yl)acetonitrile], the IC50 at DGKζ and at DGKα was no more than 0.04 µM throughout.
As for `C[C@@H]1CN2c3c(c(=O)n(C)c4ccc(F)nc34)N(C)C(=O)[C@H]2CN1C(c1ccc(F)cc1)c1ccc(F)cc1` [Example 4, (8aR,11R)-10-(Bis(4-fluorophenyl)methyl)-2-fluoro-5,7,11-trimethyl-5,7,9,10,11,12-hexahydro-6H-pyrazino[1′,2′:4,5]pyrazino[2,3-c][1,5]naphthyridine-6,8(8aH)-dione], the IC50 on DGKζ is 0.2 to 2 µM; at DGKα, no more than 0.04 µM.
As to `C[C@@H]1CN2c3c(c(=O)n(C)c4ccc(C#N)nc34)N(C)C(=O)[C@H]2CN1C(c1ccc(F)cc1)c1ccc(F)cc1` [Example 1, (8aR,11R)-10-(Bis(4-fluorophenyl)methyl)-5,7,11-trimethyl-6,8-dioxo-5,7,8,8a,9,10,11,12-octahydro-6H-pyrazino[1′,2′:4,5]pyrazino[2,3-c][1,5]naphthyridine-2-carbonitrile], the IC50 is 0.2 to 2 µM at DGKζ and no more than 0.04 µM on DGKα.
The matching figures for `C[C@@H]1CN2c3c(c(=O)n(C)c4ccccc34)N(C)C(=O)[C@H]2CN1C(c1ccc(F)cc1)c1ccc(F)cc1` [Example 3, (2R,4aR)-3-(Bis(4-fluorophenyl)methyl)-2,6,8-trimethyl-2,3,4,4a,6,8-hexahydro-1H-pyrazino[1′,2′:4,5]pyrazino[2,3-c]quinoline-5,7-dione]: greater than 2 µM and no more than 0.04 µM.
Taken in the same sequence, the figures for `C[C@@H]1CN2c3c(c(=O)n(C)c4ccc(-c5cnn(C)c5)nc34)N(C)C(=O)[C@H]2CN1C(c1ccc(F)cc1)c1ccc(F)cc1` [Example 8, (8aR,11R)-10-(Bis(4-fluorophenyl)methyl)-5,7,11-trimethyl-2-(1-methyl-1H-pyrazol-4-yl)-5,7,9,10,11,12-hexahydro-6H-pyrazino[1′,2′:4,5]pyrazino[2,3-c][1,5]naphthyridine-6,8(8aH)-dione] were greater than 2 µM and no more than 0.04 µM.
